According to ChEMBL document CHEMBL6092142, “Discovery and preclinical profile of YK-2168, a differentiated selective CDK9 inhibitor in clinical development” (Bioorg Med Chem Lett, 2024):
Each block holds one molecule with its values, some of them ahead of it.

Columns and labels:
[1] = Selectivity index, ratio of IC50 for inhibition of CDK1 (unknown origin) to IC50 for inhibition of CDK9 (unknown origin)
[2] = Selectivity index, ratio of IC50 for inhibition of CDK2 (unknown origin) to IC50 for inhibition of CDK9 (unknown origin)
MV4-11 [3] = experiment: Antiproliferative activity against human MV4-11 cells assessed as cell viability; assay type: functional, cell-based
[4] = target: Cyclin-dependent kinase 1 (Homo sapiens, UniProt P06493); experiment: Inhibition of CDK1 (unknown origin)
Cyclin-dependent kinase 1, sequence (P06493 whole entry): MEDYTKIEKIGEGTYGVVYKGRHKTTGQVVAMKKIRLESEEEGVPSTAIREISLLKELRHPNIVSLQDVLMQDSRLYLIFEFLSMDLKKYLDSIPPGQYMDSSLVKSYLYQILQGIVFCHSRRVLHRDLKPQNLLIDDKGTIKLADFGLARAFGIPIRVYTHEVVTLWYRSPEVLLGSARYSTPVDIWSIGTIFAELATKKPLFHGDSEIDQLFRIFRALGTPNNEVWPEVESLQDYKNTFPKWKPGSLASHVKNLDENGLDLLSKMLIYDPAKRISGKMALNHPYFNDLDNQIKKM

[5] = target: Cyclin-dependent kinase 2 (Homo sapiens, UniProt P24941); experiment: Inhibition of CDK2 (unknown origin)
[6] = Volume of distribution in CD-1 mouse at 2 mg/kg, iv; assay type: ADME, organism-based; settings: in vivo
[7] = Half life in CD-1 mouse at 2 mg/kg, iv; assay type: ADME, organism-based; settings: in vivo
[8] = AUC (0 to 24 hrs) in CD-1 mouse at 2 mg/kg, iv; assay type: ADME, organism-based; settings: in vivo
MV4-11 [9] = experiment: Antitumor activity against human MV4-11 cells xenografted in mouse assessed as tumor growth inhibition at 10 mg/kg, iv measured upto 28 days; assay type: functional; settings: MV4-11, 672 h, time <= 28 day, read-out: TGI
[10] = Toxicity in mouse assessed as change in body weight at 10 mg/kg, iv measured upto 28 days; assay type: organism-based; settings: in vivo, 672 h, time < 28 day
[11] = Clearance in CD-1 mouse at 2 mg/kg, iv; assay type: ADME, organism-based; settings: in vivo

SMILES: c1cc(-c2cnn(CC3CC3)c2)c2cc(C3CCNCC3)[nH]c2n1
Ratio IC50 [1]: 48.8
Ratio IC50 [2]: 51.8
IC50 (MV4-11 [3]): 0.252 µM

SMILES: CC(=O)N[C@@H]1CCC[C@H](C(=O)Nc2cc(-c3cnn4c3CC(C)(C)C4)c(Cl)cn2)C1 [ZEMIRCICLIB]
Vd ([6]; CD-1, mouse, read-out: Vd): 0.52 L/kg
clearance [11]: 4.69 L/h/kg
half-life ([7]; CD-1, mouse): 6 min
AUC(0-t) ([8]; CD-1, mouse): 992 nM·h

SMILES: Clc1cnc2[nH]c(C3CCNCC3)nc2c1-c1cnn(CC2CC2)c1
Ratio IC50 [2]: 35.5
IC50 (MV4-11 [3]): 0.464 µM

Second part, led by results:

Ratio IC50 [1]: 73.3
Ratio IC50 [2]: 32.4
IC50 (MV4-11 [3]): 0.0948 µM
SMILES: CC(C)N1CCC(c2cc3c(-c4cnn(CC5CC5)c4)c(Cl)cnc3[nH]2)CC1

IC50 [4]: 0.25 µM
IC50 [5]: 0.231 µM
IC50 (MV4-11 [3]): 0.0924 µM
Vd ([6]; mouse, iv, 2 mg/kg): 1.27 L/kg
t1/2 ([7]; mouse, iv, 2 mg/kg): 26.4 min
AUC ([8]; mouse, iv, 2 mg/kg): 2686 nM·h
SMILES: COc1cc(F)ccc1-c1cc(Nc2cc(CS(C)(=N)=O)ccn2)ncc1F (stereo not given) [ENITOCICLIB]
inhibition in vivo at 10 mg/kg (MV4-11 [9]): 65%
Activity [10]: Non-toxic
